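In this assay, cells in 96-well plates receive the compound at five concentrations for 48 hours. Endpoints are linearly interpolated between the surrounding concentrations. Abbreviation: GI50, concentration required for 50% inhibition of growth.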 Activity calls are given as the source filed them. Rule as the data show it: active = GI50 up to about 1.1 µM and inactive = higher.
Key:
Test in all cases: NCI anticancer screen, dose series, 48 h
HT-29 = test system: HT-29
UACC-62 = test system: UACC-62
SNB-19 = test system: SNB-19
OVCAR-3 = test system: OVCAR-3
NCI-H460 = test system: NCI-H460
OVCAR-8 = test system: OVCAR-8
DU-145 = test system: DU-145
SK-MEL-28 = test system: SK-MEL-28
SN12C = test system: SN12C
Malme-3M = test system: Malme-3M
A549 = test system: A549
UO-31 = test system: UO-31
MCF7 = test system: MCF7
MDA-MB-231 = test system: MDA-MB-231
HL-60 = test system: HL-60
LOX IMVI = test system: LOX IMVI
SF-268 = test system: SF-268
PC-3 = test system: PC-3
SNB-75 = test system: SNB-75
CAKI-1 = test system: CAKI-1

C#CCOCC12C=CC(O1)C1C(=O)N(C)C(=O)C12 (stereo not drawn)
GI50 (HT-29): > 100 µM (inactive)
GI50 (UACC-62): > 100 µM (inactive)
GI50 (SNB-19): > 100 µM (inactive)
GI50 (OVCAR-3): > 100 µM (inactive)
GI50 (NCI-H460): > 100 µM (inactive)
GI50 (OVCAR-8): > 100 µM (inactive)
GI50 (DU-145): > 100 µM (inactive)
GI50 (SK-MEL-28): > 100 µM (inactive)
GI50 (SN12C): > 100 µM (inactive)
GI50 (Malme-3M): > 100 µM (inactive)
GI50 (A549): > 100 µM (inactive)
GI50 (UO-31): > 100 µM (inactive)
GI50 (MCF7): > 100 µM (inactive)
GI50 (MDA-MB-231): > 100 µM (inactive)
GI50 (HL-60): > 100 µM (inactive)
GI50 (LOX IMVI): > 100 µM (inactive)
GI50 (SF-268): > 100 µM (inactive)
GI50 (PC-3): > 100 µM (inactive)
GI50 (SNB-75): > 100 µM (inactive)

Cc1ccc(/C=N/n2c(=O)[nH]c3ccccc3c2=O)cc1
GI50 (HT-29): > 100 µM (inactive)
GI50 (UACC-62): > 100 µM (inactive)
GI50 (SNB-19): > 100 µM (inactive)
GI50 (OVCAR-3): > 100 µM (inactive)
GI50 (NCI-H460): > 100 µM (inactive)
GI50 (DU-145): > 100 µM (inactive)
GI50 (SK-MEL-28): > 100 µM (inactive)
GI50 (SN12C): > 100 µM (inactive)
GI50 (A549): > 100 µM (inactive)
GI50 (UO-31): > 100 µM (inactive)
GI50 (MCF7): > 100 µM (inactive)
GI50 (CAKI-1): > 100 µM (inactive)
GI50 (MDA-MB-231): > 100 µM (inactive)
GI50 (HL-60): > 100 µM (inactive)
GI50 (LOX IMVI): > 100 µM (inactive)
GI50 (SF-268): > 100 µM (inactive)
GI50 (PC-3): > 100 µM (inactive)

O=C(CN1c2ccccc2Sc2ccccc21)n1cnc2ccccc21
GI50 (HT-29): 73.6 µM (inactive)
GI50 (UACC-62): > 100 µM (inactive)
GI50 (SNB-19): > 100 µM (inactive)
GI50 (OVCAR-3): 62.8 µM (inactive)
GI50 (NCI-H460): 97.5 µM (inactive)
GI50 (OVCAR-8): 72.6 µM (inactive)
GI50 (DU-145): > 100 µM (inactive)
GI50 (SK-MEL-28): > 100 µM (inactive)
GI50 (SN12C): > 100 µM (inactive)
GI50 (Malme-3M): 74.8 µM (inactive)
GI50 (A549): > 100 µM (inactive)
GI50 (UO-31): 75.9 µM (inactive)
GI50 (MCF7): > 100 µM (inactive)
GI50 (MDA-MB-231): 53.2 µM (inactive)
GI50 (HL-60): 89.3 µM (inactive)
GI50 (LOX IMVI): 95.3 µM (inactive)
GI50 (SF-268): > 100 µM (inactive)
GI50 (PC-3): 70.6 µM (inactive)
GI50 (SNB-75): > 100 µM (inactive)

Cc1cc2c(c(C(=O)NCCC(=O)O)c1)Oc1c(cc(C)cc1C(=O)NCCC(=O)O)S2
GI50 (HT-29): > 100 µM (inactive)
GI50 (UACC-62): > 100 µM (inactive)
GI50 (SNB-19): > 100 µM (inactive)
GI50 (OVCAR-3): > 100 µM (inactive)
GI50 (OVCAR-8): > 100 µM (inactive)
GI50 (DU-145): > 100 µM (inactive)
GI50 (SK-MEL-28): > 100 µM (inactive)
GI50 (SN12C): > 100 µM (inactive)
GI50 (Malme-3M): > 100 µM (inactive)
GI50 (A549): > 100 µM (inactive)
GI50 (MCF7): > 100 µM (inactive)
GI50 (CAKI-1): > 100 µM (inactive)
GI50 (MDA-MB-231): > 100 µM (inactive)
GI50 (LOX IMVI): > 100 µM (inactive)
GI50 (SF-268): > 100 µM (inactive)
GI50 (PC-3): > 100 µM (inactive)
GI50 (SNB-75): > 100 µM (inactive)

C/C1=C/C(=O)O[C@@H]2C[C@@H](CC[C@H](C)/C=C\C=C\CC1)O[C@@](O)([C@@H]1CSC(=O)N1)C2 [LATRUNCULIN A]
GI50 (HT-29): 0.417 µM (active)
GI50 (UACC-62): 0.348 µM (active)
GI50 (SNB-19): 0.611 µM (active)
GI50 (OVCAR-3): 1.03 µM (active)
GI50 (NCI-H460): 0.8 µM (active)
GI50 (OVCAR-8): 1.41 µM (inactive)
GI50 (DU-145): 2.77 µM (inactive)
GI50 (SK-MEL-28): 1.12 µM (inactive)
GI50 (SN12C): 0.428 µM (active)
GI50 (Malme-3M): 0.895 µM (active)
GI50 (A549): 0.564 µM (active)
GI50 (UO-31): 0.3 µM (active)
GI50 (MCF7): 1.28 µM (inactive)
GI50 (CAKI-1): 0.0741 µM (active)
GI50 (MDA-MB-231): 0.0834 µM (active)
GI50 (HL-60): 3.28 µM (inactive)
GI50 (SF-268): 0.305 µM (active)
GI50 (PC-3): 0.299 µM (active)
GI50 (SNB-75): 0.075 µM (active)

CCOC(=O)c1nc2cc(N3CCOCC3)c(F)cc2[nH]c1=O
GI50 (HT-29): 69.8 µM (inactive)
GI50 (UACC-62): 92.9 µM (inactive)
GI50 (SNB-19): > 100 µM (inactive)
GI50 (OVCAR-3): > 100 µM (inactive)
GI50 (NCI-H460): > 100 µM (inactive)
GI50 (OVCAR-8): 86.9 µM (inactive)
GI50 (DU-145): > 100 µM (inactive)
GI50 (SK-MEL-28): > 100 µM (inactive)
GI50 (SN12C): > 100 µM (inactive)
GI50 (Malme-3M): > 100 µM (inactive)
GI50 (A549): > 100 µM (inactive)
GI50 (UO-31): 35.2 µM (inactive)
GI50 (MCF7): > 100 µM (inactive)
GI50 (CAKI-1): > 100 µM (inactive)
GI50 (MDA-MB-231): > 100 µM (inactive)
GI50 (HL-60): 19.8 µM (inactive)
GI50 (SF-268): > 100 µM (inactive)
GI50 (PC-3): > 100 µM (inactive)
GI50 (SNB-75): 52 µM (inactive)

COc1ccc(/C=C(\C#N)c2nc(N)nc(N3N=C(C)CC3(C)C)n2)c(O)c1
GI50 (HT-29): 19.2 µM (inactive)
GI50 (UACC-62): 17.4 µM (inactive)
GI50 (SNB-19): 35.1 µM (inactive)
GI50 (OVCAR-3): 15 µM (inactive)
GI50 (NCI-H460): 17.3 µM (inactive)
GI50 (OVCAR-8): 32.7 µM (inactive)
GI50 (DU-145): 16.7 µM (inactive)
GI50 (SK-MEL-28): 14.5 µM (inactive)
GI50 (SN12C): 26.8 µM (inactive)
GI50 (Malme-3M): 14.4 µM (inactive)
GI50 (A549): 18.8 µM (inactive)
GI50 (UO-31): 17.3 µM (inactive)
GI50 (MCF7): 18.5 µM (inactive)
GI50 (CAKI-1): 17.2 µM (inactive)
GI50 (MDA-MB-231): 17.8 µM (inactive)
GI50 (HL-60): 16.5 µM (inactive)
GI50 (SF-268): 17.2 µM (inactive)
GI50 (PC-3): 37.9 µM (inactive)

Reference: ChEMBL document CHEMBL1201862, “PubChem BioAssay data set” (2004)
